pIC50: −log10 of the molar value.
Assay: In vitro inhibitory activity against ADP-induced human platelet aggregation

SMILES	pIC50
O=c1cc(N2CCOCC2)oc2cc(OCc3cccc4ccccc34)ccc12 [2-Morpholin-4-yl-7-(naphthalen-1-ylmethoxy)-chromen-4-one]	4.39
O=c1cc(N2CCOCC2)oc2cc(OCc3ccccn3)ccc12 [2-Morpholin-4-yl-7-(pyridin-2-ylmethoxy)-chromen-4-one]	4.28
Cc1c(N2CCOCC2)oc2c(C)c(OCc3cccc4ccccc34)ccc2c1=O [3,8-Dimethyl-2-morpholin-4-yl-7-(naphthalen-1-ylmethoxy)-chromen-4-one]	< 4.12
Cc1cc2c(=O)cc(N3CCOCC3)oc2c(C)c1OCCN1CCN(C)CC1 [6,8-Dimethyl-7-[2-(4-methyl-piperazin-1-yl)-ethoxy]-2-morpholin-4-yl-chromen-4-one]	5.85
Cc1c(OCc2nnnn2C2CCCCC2)ccc2c(=O)cc(N3CCOCC3)oc12 [7-(1-Cyclohexyl-1H-tetrazol-5-ylmethoxy)-8-methyl-2-morpholin-4-yl-chromen-4-one]	4.92
Cc1c(OCc2nnnn2C(C)(C)C)ccc2c(=O)cc(N3CCOCC3)oc12 [7-(1-tert-Butyl-1H-tetrazol-5-ylmethoxy)-8-methyl-2-morpholin-4-yl-chromen-4-one]	5.70
Cc1c(OCCN2CCCCCC2)ccc2c(=O)cc(N3CCOCC3)oc12 [7-(2-Azepan-1-yl-ethoxy)-8-methyl-2-morpholin-4-yl-chromen-4-one]	5.52
CCN(CC)CCOc1ccc2c(=O)cc(N3CCOCC3)oc2c1C [7-(2-Diethylamino-ethoxy)-8-methyl-2-morpholin-4-yl-chromen-4-one]	5.59
COc1ccccc1COc1ccc2c(=O)cc(N3CCOCC3)oc2c1C [7-(2-Methoxy-benzyloxy)-8-methyl-2-morpholin-4-yl-chromen-4-one]	4.36
COCCOc1ccc2c(=O)cc(N3CCOCC3)oc2c1C [7-(2-Methoxy-ethoxy)-8-methyl-2-morpholin-4-yl-chromen-4-one]	5.15
COc1ccc(COc2ccc3c(=O)cc(N4CCOCC4)oc3c2C)cc1 [7-(4-Methoxy-benzyloxy)-8-methyl-2-morpholin-4-yl-chromen-4-one]	4.33
C=CCOc1ccc2c(=O)cc(N3CCOCC3)oc2c1C [7-Allyloxy-8-methyl-2-morpholin-4-yl-chromen-4-one]	4.24
Cc1c(N2CCOCC2)oc2c(C)c(OCc3ccccc3)ccc2c1=O [7-Benzyloxy-3,8-dimethyl-2-morpholin-4-yl-chromen-4-one]	< 4.12
Cc1c(OCc2ccccc2)ccc2c(=O)cc(N3CCOCC3)oc12 [7-Benzyloxy-8-methyl-2-morpholin-4-yl-chromen-4-one]	4.40
COc1ccc2c(=O)cc(N3CCOCC3)oc2c1C [7-Methoxy-8-methyl-2-morpholin-4-yl-chromen-4-one]	4.39
Cc1c(OCCN2CCN(Cc3ccccc3)CC2)ccc2c(=O)cc(N3CCOCC3)oc12 [7-[2-(4-Benzyl-piperazin-1-yl)-ethoxy]-8-methyl-2-morpholin-4-yl-chromen-4-one]	4.96
CCCc1c(OCCN2CCN(C)CC2)ccc2c(=O)cc(N3CCOCC3)oc12 [7-[2-(4-Methyl-piperazin-1-yl)-ethoxy]-2-morpholin-4-yl-8-propyl-chromen-4-one]	4.16
C=Cc1c(OCCN2CCN(C)CC2)ccc2c(=O)cc(N3CCOCC3)oc12 [7-[2-(4-Methyl-piperazin-1-yl)-ethoxy]-2-morpholin-4-yl-8-vinyl-chromen-4-one]	5.52
CN1CCN(CCOc2ccc3c(=O)cc(N4CCOCC4)oc3c2)CC1 [7-[2-(4-Methyl-piperazin-1-yl)-ethoxy]-2-morpholin-4-yl-chromen-4-one]	4.46
Cc1c(OCCN2CCN(C)CC2)ccc2c(=O)cc(N3CCOCC3)oc12 [7-[2-(4-methylpiperazin-1-yl)ethoxy]-8-methyl-2-morpholinyl chromone]	6.07
CCN(CCOc1ccc2c(=O)cc(N3CCOCC3)oc2c1C)c1ccccc1 [7-[2-(Ethyl-phenyl-amino)-ethoxy]-8-methyl-2-morpholin-4-yl-chromen-4-one]	4.37

SMILES	pIC50
Cc1c(OCCN2CCN(CCO)CC2)ccc2c(=O)cc(N3CCOCC3)oc12 [7-{2-[4-(2-Hydroxy-ethyl)-piperazin-1-yl]-ethoxy}-8-methyl-2-morpholin-4-yl-chromen-4-one]	4.92
CCN(CCO)CCOc1ccc2c(=O)cc(N3CCOCC3)oc2c1C [7-{2-[Ethyl-(2-hydroxy-ethyl)-amino]-ethoxy}-8-methyl-2-morpholin-4-yl-chromen-4-one]	4.85
C=CCc1c(OCCN2CCN(C)CC2)ccc2c(=O)cc(N3CCOCC3)oc12 [8-Allyl-7-[2-(4-methyl-piperazin-1-yl)-ethoxy]-2-morpholin-4-yl-chromen-4-one]	5.05
CCc1c(OCCN2CCN(C)CC2)ccc2c(=O)cc(N3CCOCC3)oc12 [8-Ethyl-7-[2-(4-methyl-piperazin-1-yl)-ethoxy]-2-morpholin-4-yl-chromen-4-one]	5.40
Cc1c(OCc2nnnn2-c2ccccc2)ccc2c(=O)cc(N3CCOCC3)oc12 [8-Methyl-2-morpholin-4-yl-7-(1-phenyl-1H-tetrazol-5-ylmethoxy)-chromen-4-one]	5.10
Cc1c(OCC(=O)c2ccccc2)ccc2c(=O)cc(N3CCOCC3)oc12 [8-Methyl-2-morpholin-4-yl-7-(2-oxo-2-phenyl-ethoxy)-chromen-4-one]	4.37
CC(=O)COc1ccc2c(=O)cc(N3CCOCC3)oc2c1C [8-Methyl-2-morpholin-4-yl-7-(2-oxo-propoxy)-chromen-4-one]	4.92
Cc1c(OCCN2CCNCC2)ccc2c(=O)cc(N3CCOCC3)oc12 [8-Methyl-2-morpholin-4-yl-7-(2-piperazin-1-yl-ethoxy)-chromen-4-one]	5.40
Cc1c(OCCN2CCCCC2)ccc2c(=O)cc(N3CCOCC3)oc12 [8-Methyl-2-morpholin-4-yl-7-(2-piperidin-1-yl-ethoxy)-chromen-4-one]	5.30
Cc1c(OCCN2CCCC2)ccc2c(=O)cc(N3CCOCC3)oc12 [8-Methyl-2-morpholin-4-yl-7-(2-pyrrolidin-1-yl-ethoxy)-chromen-4-one]	5.40
Cc1c(OCCN2CCSCC2)ccc2c(=O)cc(N3CCOCC3)oc12 [8-Methyl-2-morpholin-4-yl-7-(2-thiomorpholin-4-yl-ethoxy)-chromen-4-one]	5.37
Cc1c(OCc2cccc3ccccc23)ccc2c(=O)cc(N3CCOCC3)oc12 [8-Methyl-2-morpholin-4-yl-7-(naphthalen-1-ylmethoxy)-chromen-4-one]	4.89
Cc1c(OCc2ccc3ccccc3c2)ccc2c(=O)cc(N3CCOCC3)oc12 [8-Methyl-2-morpholin-4-yl-7-(naphthalen-2-ylmethoxy)-chromen-4-one]	4.19
Cc1c(OCc2ccccn2)ccc2c(=O)cc(N3CCOCC3)oc12 [8-Methyl-2-morpholin-4-yl-7-(pyridin-2-ylmethoxy)-chromen-4-one]	4.72
Cc1c(OCc2cccnc2)ccc2c(=O)cc(N3CCOCC3)oc12 [8-Methyl-2-morpholin-4-yl-7-(pyridin-3-ylmethoxy)-chromen-4-one]	5.40
Cc1c(OCCN2CCN(c3ccccc3)CC2)ccc2c(=O)cc(N3CCOCC3)oc12 [8-Methyl-2-morpholin-4-yl-7-[2-(4-phenyl-piperazin-1-yl)-ethoxy]-chromen-4-one]	< 4.12
Cc1c(OCc2nnnn2C)ccc2c(=O)cc(N3CCOCC3)oc12 [8-Methyl-7-(1-methyl-1H-tetrazol-5-ylmethoxy)-2-morpholin-4-yl-chromen-4-one]	5.55
CSCCOc1ccc2c(=O)cc(N3CCOCC3)oc2c1C [8-Methyl-7-(2-methylsulfanyl-ethoxy)-2-morpholin-4-yl-chromen-4-one]	4.85
COC(=O)COc1ccc2c(=O)c(C)c(N3CCOCC3)oc2c1C [(3,8-Dimethyl-2-morpholin-4-yl-4-oxo-4H-chromen-7-yloxy)-acetic acid methyl ester]	4.23
COC(=O)COc1ccc2c(=O)cc(N3CCOCC3)oc2c1C [(8-Methyl-2-morpholin-4-yl-4-oxo-4H-chromen-7-yloxy)-acetic acid methyl ester]	5.05
